The source of these data is patent US8569338B2, “Methods of using 4, 5, 6, 7-tetrahydroimidazo-[4,5-c]pyridine compounds” (Proximagen Ltd., priority 2008, dated 2013).

Molecules are shown by their SMILES.

As a reminder, the IC50 is the point on the concentration scale where inhibition reaches its midpoint.

Chain of purified recombinantly expressed human SSAO (Q16853 29-763): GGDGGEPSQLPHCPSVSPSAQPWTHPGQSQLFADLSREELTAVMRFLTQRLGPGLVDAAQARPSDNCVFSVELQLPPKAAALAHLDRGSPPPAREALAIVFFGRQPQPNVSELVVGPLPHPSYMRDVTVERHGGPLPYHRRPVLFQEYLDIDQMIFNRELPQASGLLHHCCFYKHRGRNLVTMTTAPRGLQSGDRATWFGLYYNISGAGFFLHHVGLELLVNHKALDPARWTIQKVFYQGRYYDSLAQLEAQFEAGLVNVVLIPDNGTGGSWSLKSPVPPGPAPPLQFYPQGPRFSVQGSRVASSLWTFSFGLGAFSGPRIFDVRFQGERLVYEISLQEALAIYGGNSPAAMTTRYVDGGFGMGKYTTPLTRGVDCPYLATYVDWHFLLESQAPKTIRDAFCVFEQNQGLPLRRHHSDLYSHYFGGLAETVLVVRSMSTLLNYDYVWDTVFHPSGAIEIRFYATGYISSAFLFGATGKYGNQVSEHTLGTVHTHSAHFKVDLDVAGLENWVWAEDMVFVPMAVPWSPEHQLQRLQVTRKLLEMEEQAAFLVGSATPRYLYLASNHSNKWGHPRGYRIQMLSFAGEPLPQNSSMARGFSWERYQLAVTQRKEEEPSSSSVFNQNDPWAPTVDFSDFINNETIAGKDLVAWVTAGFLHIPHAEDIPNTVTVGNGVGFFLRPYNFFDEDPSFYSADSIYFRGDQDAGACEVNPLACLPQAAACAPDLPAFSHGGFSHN

For the assay, the target named is purified recombinantly expressed human SSAO (Homo sapiens (Human), UniProt Q16853). Put plainly: SSAO enzyme inhibition assay (HRP-coupled Amplex Red, benzylamine substrate). It is filed as biochemical. The note with it: benzylamine 100 μM, approximately 60 minutes pre-incubation, pH 7.4, room temperature. The protocol:
Biological Assay of the SSAO Enzyme Inhibitors
All assays were performed in room temperature with purified recombinantly expressed human SSAO. Enzyme was prepared essentially as described in Ohman et al. (Protein Expression and Purification 2006, 46, 321-331). The enzyme activity was measured with benzylamine as substrate and utilized the production of hydrogen peroxide for detection. In a horseradish peroxidise (HRP) coupled reaction, hydrogen peroxide oxidation of 10-acetyl-3,7-dihydroxyphenoxazine produced resorufin, which is a highly fluorescent compound (Zhout and Panchuk-Voloshina. Analytical Biochemistry 1997, 253, 169-174; Amplex® Red Hydrogen Peroxide/peroxidise Assay kit, Invitrogen A22188).
Briefly, test compounds were dissolved in dimethyl sulfoxide (DMSO) to a concentration of 10 mM. Dose-response measurements were assayed by either creating 1:10 serial dilutions in DMSO to produce a 7 point curve or by making 1:3 serial dilutions in DMSO to produce 11 point curves. The top concentrations were adjusted depending on the potency of the compounds and subsequent dilution in reaction buffer (50 mM sodium phosphate, pH 7.4) yielded a final DMSO concentration≦2%. Enzyme and compounds were set to pre-incubate in flat-bottomed microtiter plates for approximately 60 minutes before initiating the reaction by addition of a mixture of HRP, benzylamine and Amplex reagent. Fluorescence intensity was then measured at several time points (15 minutes, 20 minutes and 30 minutes) exciting at 544 nm and reading the emission at 590 nm). Final concentrations of the reagents in the assay wells were: SSAO enzyme 2 μg/ml, benzylamine 100 μM, Amplex reagent 20 μM, HRP 0.1 U/mL and varying concentrations of test compound. The inhibition was measured as % decrease of the signal compared to a control without inhibitor (only diluted DMSO). The background signal from a sample containing no SSAO enzyme was subtracted from all data points. Data was fitted to a four parameter logistic model and IC50 values were calculated using the GraphPad Prism 4 or XLfit 4 programs.
In the case of `CC(C)C1c2[nH]cnc2CCN1C(=O)OCc1cccnc1` (stereo not drawn) [Example 7, Pyridin-3-ylmethyl 4-isopropyl-1,4,6,7-tetrahydro-5H-imidazo[4,5-c]pyridine-5-carboxylate], the IC50 turned out to be 0.034 µM.

Turning to `CC(C)C1c2[nH]cnc2CCN1C(=O)OCCOc1ccccc1` (stereo not drawn) [Example 14, 2-Phenoxyethyl 4-isopropyl-1,4,6,7-tetrahydro-5H-imidazo[4,5-c]pyridine-5-carboxylate], the IC50 came out at 0.048 µM.

Regarding `CC(C)C1c2[nH]cnc2CCN1C(=O)OCC1CCOC1` (stereo not drawn) [Example 17, Tetrahydrofuran-3-ylmethyl 4-isopropyl-1,4,6,7-tetrahydro-5H-imidazo[4,5-c]-pyridine-5-carboxylate], the IC50 turned out to be 0.091 µM.
